# Tests used:
# [1] = system: pERK in KPF/FC tumors; assay: PK/PD in KPF/FC tumors (pERK IHC); assay type: in vivo; conditions: Mus musculus, read-out: EC50, pERK inhibition vs RMC-7977 concentration in tumors
# Description: Tumor formation in KPF/FC (KrasLSL.G12D/+; p53flox/flox; Pdx1-Cre) mice was monitored by bi-weekly palpations until the detection of a mass, which was then confirmed by ultrasound. Tumor-bearing mice were randomized and assigned into groups (n=3/dose/timepoint). Single dose of RMC-7977 was administered orally at 10 mg/kg, 25 mg/kg and 50 mg/kg. The same vehicle formulation was used for the control group. Whole blood and tissue (tumors and colons) were harvested at indicated time points preserved as previously described (See Xenograft studies section).
# Whole blood, tumor, colon and skin tissue concentrations of RMC-7977 were determined using liquid chromatography-tandem mass spectrometry (LC-MS/MS) methods. Tissue samples were homogenized with a 5× or 10× volume of homogenization buffer (methanol/15 mM PBS (1:2; v:v) or 15 mM PBS with 10% methanol). […] After thorough mixing and centrifugation, the supernatant was directly analyzed on a Sciex 6500+ triple quadrupole mass spectrometer equipped with an ACQUITY or Shimadzu UPLC system. […] RMC-7977 and IS (verapamil or terfenadine) were detected by positive electrospray ionization using multiple reaction monitoring (RMC-7977: m/z 865.4/706.4 or m/z 865.3/833.5; verapamil: m/z 455.2/164.9; terfenadine: m/z 472.3/436.4). The lower limit of quantification was 0.5 ng/mL or 2.0 ng/mL for blood, tumor, and other tissue. […]
# [2] = system: human PDAC organoids; assay: Organoid drug treatment and viability assay; assay type: cell-based; conditions: Matrigel-embedded human PDAC organoids; 6 days
# Description: Organoids were cultured at 37° C. in 5% CO2. Cells were seeded in growth factor reduced Matrigel (Corning; Cat. #356231) domes and incubated with human organoid medium formulated as follows: Advanced DMEM/F12-based-conditioned medium, 1×B27 supplement, 10 mM HEPES, 2 mM GlutaMAX, 10 mM nicotinamide, 1.25 mM N-acetylcysteine, 50 ng/mL mEGF, 100 ng/mL hFGF10, […] hGastrin I, 500 nM A83-01, Noggin 100 ng/mL, 1×Wnt-3A conditioned 10% FBS DMEM (50% by volume) and 1×R-spondin Conditioned Basal Medium (10% by volume)^52,53
# Organoids were dissociated using TrypLE Express (Thermo Fisher, Cat. #12604054) and cells were seeded into ultra-low attachment 384-well plates at 1×10^3 cells per well into […] of culture media, consisting of 10% Matrigel and 90% human organoid medium. […] Cell viability was assessed 6 days post-treatment using a Cell-TiterGlo 3D Cell Viability assay (Promega, G9683), according to the manufacturer's instructions. […] was read using a FLUOstar Omega microplate reader. Technical triplicates were analyzed for each biological replicate and a total of three biological replicates were done for each cell line. CTG assay readouts were plotted as a function of log molar [inhibitor] and a 4-parameter sigmoidal concentration response model was fitted to the data. […]
# [3] = system: KPCY-derived PDAC cell line (6499c4) allografts; assay: KPCY 6499c4 syngeneic allograft studies; assay type: in vivo, mouse
# Description: All murine allograft studies and procedures related to animal handling, care and treatment were conducted in compliance with all applicable regulations and guidelines of the Institutional Animal Care and Use Committee (IACUC). Female C57BL/6J (strain 000664) mice aged 6-8 weeks from the Jackson Laboratory (Bar Harbor, ME USA) were used for these studies.
# In order to generate subcutaneous (SC) allograft tumors, each mouse was inoculated in the right flank with 3×10^5 of KPCY 6499c4 tumor cells in 0.1 ml of Matrigel:PBS (1:1). Treatments were started when the average tumor size reached 140 mm^3. Tumor size was measured at two dimensions using a digital caliper, and the tumor volume in mm^3 was calculated using the formula: Volume=((width)2×length)/2. Mice on studies were weighed and tumors were measured 2 times a week.
# To generate orthotopic allograft tumors, 5×10^4 KPCY 6499c4 tumor cells in 20 μL PBS/Matrigel mixtures (1:1) were implanted directly into the mouse pancreas through a laparoscopic incision. Treatments were started when the average tumor size reached […]. Body weights were measured and tumor growth was monitored by ultrasound twice weekly.
# Tumor-bearing animals were randomized, assigned into groups (n=9-10/group), and treated daily via oral gavage with Vehicle or RMC-7977 (10 mg/kg, q.d.). For SC KPCY study, survival endpoint was defined as: tumor volume reaching 2000 mm^3 or mice showing any clinical signs, including severe ulceration. For orthotopic KPCY study, survival endpoint was defined as (1) mice showing any clinical signs including hunching or fluid in the abdomen, or (2) tumor dimensions exceeding the imaging frame of the ultrasound. Body weights were measured twice a week during the study. Tissue was harvested either at 4 hours or 24 hours after last dose and preserved as previously described (See Xenograft studies section).
# To stain tissues collected from the KPCY allograft model, a Biocare IntelliPATH automation system was used, and primary antibodies were detected with the MACH4-HRP-polymer Detection System (Biocare, MRH534). Stained slides were scanned and digitized with a TissueScope LE (Huron Digital Pathology) whole slide scanner at 20× magnification. Image analysis was performed using HALO software from Indica Labs.
# [4] = orthotopic CDA model, four hours after treatment
smiles,measurement,setting,value
CCn1c(-c2cc(N3CCN(C4CC4)CC3)cnc2[C@H](C)OC)c2c3cc(ccc31)-c1csc(n1)C[C@H](NC(=O)[C@H]1[C@@H]3COC[C@@H]31)C(=O)N1CCC[C@H](N1)C(=O)OCC(C)(C)C2 [RMC-7977],EC50,[1],321 nM
same,potency in concentration-response cell viability assays,[2],low nanomolar potency
same,tumor regressions,[3]; 10 mg/kg q.d.,without inducing significant regressions
same,apoptosis in tumors,[3]; [4],increased apoptosis
same,pERK levels in tumors,[3]; [4],reduced pERK levels
same,tumor growth,"[3]; subcutaneous or orthotopic, immunocompetent C57Bl/6 mice, 10 mg/kg q.d.",diminished tumor growth
same,overall survival,"[3]; subcutaneous or orthotopic, 10 mg/kg q.d.",extended overall survival

# Source: patent US12662707B2, “MYC amplification drives resistance to pan-RAS inhibitors in pancreatic cancer” (The Trustees of Columbia University in the City of New York, priority 2024, dated 2026)
